Results from ChEMBL document CHEMBL6134901 (J Med Chem, 2025).

The compounds below were run on Clostridioides difficile (assay: Antibacterial activity against Clostridium difficile ATTC43255 assessed as spore germination inhibition at 45 uM incubated for 60 mins by spectrometry relative to control). Settings: ATTC43255, 1 h.
Format: functional
Work on `FC(F)(F)c1ccc(Oc2ccc(-c3noc(-c4c[nH]cn4)n3)cc2)cc1` yielded an inhibition at 45 µM of less than 10%.
`Nc1cc(Oc2ccccc2)ccc1-c1noc(-c2ccc(O)cc2)n1` gave an inhibition at 45 µM of 17%.
`CC(C)Oc1ncc(-c2nc(-c3cccc4c3ccn4CCCC(=O)O)no2)cc1Cl` [GSK-2018682] showed an inhibition at 45 µM of less than 10%.
Compound `NCc1ccc(-c2nc(-c3ccc(OC(F)F)cc3)no2)cc1` has an inhibition at 45 µM of less than 10%.
In the case of `Oc1ccc(-c2nc(-c3ccc4oc5ccccc5c4c3)no2)cc1`, the inhibition at 45 µM is reported as less than 10%.
In the case of `Oc1ccc(-c2nc(-c3ccc(Oc4ccc(C(F)(F)F)cc4)cc3)no2)cc1O`, the inhibition at 45 µM is reported as less than 10%.
In the case of `N#Cc1ccc(Oc2ccc(-c3noc(-c4ccc(O)cc4)n3)cc2)cc1`, the inhibition at 45 µM is reported as less than 10%.
`O=[N+]([O-])c1cc(Oc2ccc(C(F)(F)F)cc2)cnc1-c1noc(-c2ccc(O)cc2)n1` was tested, and the inhibition at 45 µM was less than 10%.
`CC(C)Oc1ncc(-c2nc(-c3cccc4c3CCC4NCCC(=O)O)no2)cc1C#N` (centres undefined) showed an inhibition at 45 µM of less than 10%.
With `Oc1ccc(-c2nc(-c3ccc(Oc4ccccc4CBr)cc3)no2)cc1` the inhibition at 45 µM was 27%.
Compound `N[C@H]1CC[C@H](Oc2ccc(-c3noc(-c4ccc(O)cc4)n3)cc2)CC1` has an inhibition at 45 µM of less than 10%.
`FC(F)(F)c1ccc(Oc2ccc(-c3noc(-c4n[nH]c5ccccc45)n3)cc2)cc1` showed an inhibition at 45 µM of less than 10%.
Work on `CCCOc1ccc(-c2noc(-c3ccc(O)cc3)n2)cc1` yielded an inhibition at 45 µM of less than 10%.
`CC(C)(C)OC(=O)N1CCC(Nc2c[nH]nc2-c2nc(-c3ccc(Oc4ccc(C(F)(F)F)cc4)cc3)no2)CC1` showed an inhibition at 45 µM of less than 10%.
`FC(F)(F)c1ccc(Oc2ccc(-c3noc(-c4n[nH]cc4NC4CCCCC4)n3)cc2)cc1` was tested, and the inhibition at 45 µM was less than 10%.
Work on `NCCCCc1nc(-c2ccc(OC3CCCC3)cc2)no1` yielded an inhibition at 45 µM of less than 10%.
Compound `Oc1ccc(-c2nc(-c3ccc(C(O)C(F)(F)F)cc3)no2)cc1` (centres undefined) has an inhibition at 45 µM of less than 10%.
Compound `NCc1ccc(-c2nc(-c3ccc(Oc4ccc(C(F)(F)F)cc4)cn3)no2)cc1` has an inhibition at 45 µM of 24%.
Compound `CS(=O)(=O)Nc1ccc(-c2nc(-c3ccc(OC4CCCC4)cc3)no2)cc1` has an inhibition at 45 µM of less than 10%.
`O=[N+]([O-])c1ccccc1Oc1ccc(-c2noc(-c3ccc(O)cc3)n2)cc1` gave an inhibition at 45 µM of 21%.
Work on `Oc1ccc(-c2nc(-c3ccc(O[C@@H]4CCNC4)cc3)no2)cc1` yielded an inhibition at 45 µM of less than 10%.
`Oc1ccc(-c2nc(-c3ccc(Oc4cccc(I)c4)cc3)no2)cc1` was tested, and the inhibition at 45 µM was 37%.
`Oc1ccc(-c2nc(-c3ccc(N4CCOCC4)cc3)no2)cc1` was tested, and the inhibition at 45 µM was less than 10%.
`CC(C)(C)Oc1ccc(-c2noc(-c3ccc(O)cc3)n2)cc1` showed an inhibition at 45 µM of less than 10%.
`Oc1ccc(-c2nc(-c3ccc(OC4CC4)cc3)no2)cc1` was tested, and the inhibition at 45 µM was less than 10%.
For `Oc1ccc(-c2nc(N3CCN(c4cccc(Cl)c4)CC3)no2)cc1`, the inhibition at 45 µM was less than 10%.
`O=C(Nc1c[nH]nc1-c1nc(-c2ccc(Oc3ccc(C(F)(F)F)cc3)cc2)no1)c1ccccn1` showed an inhibition at 45 µM of less than 10%.
`O=C1C[C@@H](c2nc(-c3ccc(Oc4ccc(C(F)(F)F)cc4)cc3)no2)CN1` was tested, and the inhibition at 45 µM was less than 10%.
With `Oc1ccc(-c2nc(-c3ccc4oc5ccc(F)cc5c4c3)no2)cc1` the inhibition at 45 µM was less than 10%.
With `Oc1ccc(-c2nc(-c3ccc(Oc4ccc(C(F)(F)F)cc4)cc3)no2)cc1F` the inhibition at 45 µM was 14%.
In the case of `Oc1ccc(-c2nc(-c3ccc(Oc4ccc(I)cc4)cc3)no2)cc1`, the inhibition at 45 µM is reported as 39%.
In the case of `COc1ccc(-c2noc(-c3ccc(O)cc3)n2)cc1OC`, the inhibition at 45 µM is reported as less than 10%.
Work on `NCc1ccc(-c2nc(-c3ccc(OC4CCCC4)cc3)no2)cc1` yielded an inhibition at 45 µM of 41%.
In the case of `Oc1ccc(-c2nc(-c3ccc(OC(F)(F)F)cc3)no2)cc1`, the inhibition at 45 µM is reported as less than 10%.
`OCC#Cc1c[nH]nc1-c1nc(-c2ccc(Oc3ccc(C(F)(F)F)cc3)cc2)no1` was tested, and the inhibition at 45 µM was less than 10%.
`O=C(O)c1cccc(-c2noc(-c3ccccc3F)n2)c1` was tested, and the inhibition at 45 µM was less than 10%.
`NCc1ccc(-c2nc(-c3ccc(OC(F)(F)F)cc3)no2)cc1` showed an inhibition at 45 µM of 33%.
For `Oc1ccc(-c2nc(-c3ccc(OC4CCC4)cc3)no2)cc1`, the inhibition at 45 µM was less than 10%.
`CC(C)Cc1ccc(-c2nc(-c3ccc(CN4CC(C(=O)O)C4)cc3)no2)cc1` showed an inhibition at 45 µM of less than 10%.
`Oc1ccc(-c2nc(-c3ccc(Oc4ccc(C(F)(F)F)cc4)cc3)no2)cn1` was tested, and the inhibition at 45 µM was less than 10%.
Work on `O=[N+]([O-])c1ccc(-c2nc(-c3ccc(OC4CCCC4)cc3)no2)cc1` yielded an inhibition at 45 µM of less than 10%.
`Nc1ccc(-c2nc(-c3ccc(Oc4ccc(C(F)(F)F)cc4)cc3)no2)cc1F` showed an inhibition at 45 µM of less than 10%.
Compound `FC(F)(F)c1ccc(Oc2ccc(-c3noc(-c4n[nH]cc4Br)n3)cc2)cc1` has an inhibition at 45 µM of less than 10%.
`CCCCOc1ccc(-c2noc(-c3ccc(CNC(=O)OC(C)(C)C)cc3)n2)cc1` gave an inhibition at 45 µM of less than 10%.
With `FC(F)(F)c1ccc(Oc2ccc(-c3noc(-c4cn[nH]c4)n3)cc2)cc1` the inhibition at 45 µM was less than 10%.
With `FC(F)(F)c1ccc(Oc2ccc(-c3noc(-c4nc[nH]n4)n3)cc2)cc1` the inhibition at 45 µM was less than 10%.
In the case of `c1cc(-c2noc(-c3ccc4c(c3)CCN4)n2)ccc1OC1CCCC1`, the inhibition at 45 µM is reported as less than 10%.
`COc1ccc(-c2nc(-c3ccc(Oc4ccc(C(F)(F)F)cc4)cc3)no2)cc1[N+](=O)[O-]` showed an inhibition at 45 µM of less than 10%.
`O=[N+]([O-])c1c[nH]c(-c2nc(-c3ccc(OC4CCCC4)cc3)no2)n1` showed an inhibition at 45 µM of less than 10%.
Work on `FC(F)(F)c1ccc(Oc2ccc(-c3noc(-c4ccncc4)n3)cc2)cc1` yielded an inhibition at 45 µM of less than 10%.
Work on `Oc1ccc(-c2nc(N3CCN(c4ccccc4)CC3)no2)cc1` yielded an inhibition at 45 µM of 18%.
Work on `CCN(CC)CCc1nc(-c2ccccc2)no1` yielded an inhibition at 45 µM of less than 10%.
`COc1ccc(-c2noc(-c3ccc(CN)cc3)n2)cc1` was tested, and the inhibition at 45 µM was less than 10%.
Compound `O=[N+]([O-])c1cn(CCO)c(-c2nc(-c3ccc(OC4CCCC4)cc3)no2)n1` has an inhibition at 45 µM of less than 10%.
Work on `C#CCOc1ccc(-c2noc(-c3ccc(O)cc3)n2)cc1` yielded an inhibition at 45 µM of less than 10%.
`Nc1ccc(-c2noc(-c3ccc(O)cc3)n2)cc1` showed an inhibition at 45 µM of less than 10%.
For `NCc1ccc(-c2nc(-c3ccc(Oc4ccc(F)c(F)c4)cc3)no2)cc1`, the inhibition at 45 µM was 44%.
Work on `CCOc1ccc(-c2noc(-c3ccc(O)cc3)n2)cc1` yielded an inhibition at 45 µM of less than 10%.
Compound `CCC(C)Nc1c[nH]nc1-c1nc(-c2ccc(Oc3ccc(C(F)(F)F)cc3)cc2)no1` (centres undefined) has an inhibition at 45 µM of less than 10%.
Compound `CCCCNc1c[nH]nc1-c1nc(-c2ccc(Oc3ccc(C(F)(F)F)cc3)cc2)no1` has an inhibition at 45 µM of less than 10%.
With `NCc1ccc(-c2nc(-c3ccc(O[C@@H]4CCNC4)cc3)no2)cc1` the inhibition at 45 µM was less than 10%.
Compound `CC(C)(C)OC(=O)NCc1ccc(-c2nc(-c3ccc(Oc4ccc(F)c(F)c4)cc3)no2)cc1` has an inhibition at 45 µM of less than 10%.
In the case of `Oc1ccc(-c2nc(-c3ccc(OC4CCOC4)cc3)no2)cc1` (centres undefined), the inhibition at 45 µM is reported as less than 10%.
Compound `FC(F)(F)c1ccc(Oc2ccc(-c3noc(-c4ccc5[nH]ccc5c4)n3)cc2)cc1` has an inhibition at 45 µM of less than 10%.
Compound `Cc1c(Cl)c(C)[n+]([O-])c(Cl)c1-c1noc(-c2cc(O)c(O)c([N+](=O)[O-])c2)n1` [OPICAPONE] has an inhibition at 45 µM of less than 10%.
Work on `NCCc1ccc(Oc2cc(-c3noc(-c4ccc(CN)cc4)n3)ccn2)cc1` yielded an inhibition at 45 µM of 27%.
For `c1nc2cc(-c3nc(-c4ccc(OC5CCCC5)cc4)no3)ccc2[nH]1`, the inhibition at 45 µM was less than 10%.
`CCOc1ccc(-c2nc(-c3cccc4c3CCC4NCCO)no2)cc1OCC` (centres undefined) showed an inhibition at 45 µM of less than 10%.
Compound `NCc1ccc(-c2nc(-c3ccc(OC4CC4)cc3)no2)cc1` has an inhibition at 45 µM of 12%.
Compound `NCCCCc1nc(-c2ccc(Oc3ccc(F)cc3)cc2)no1` has an inhibition at 45 µM of less than 10%.
For `Oc1ccc(-c2nc(-c3ccc(Oc4ccc(C(F)(F)F)cc4)cc3)no2)cc1`, the inhibition at 45 µM was 14%.
With `Oc1ccc(-c2nc(-c3ccc4c(c3)OCO4)no2)cc1` the inhibition at 45 µM was less than 10%.
Work on `COc1ccc(-c2nc(-c3ccc(Oc4ccc(C(F)(F)F)cc4)cc3)no2)cc1OC` yielded an inhibition at 45 µM of less than 10%.
In the case of `N#Cc1ccc(-c2nc(-c3ccc(Oc4ccc(F)cc4)cc3)no2)cc1`, the inhibition at 45 µM is reported as less than 10%.
With `NCc1ccc(-c2nc(-c3ccc(OC4CCCCC4)cc3)no2)cc1` the inhibition at 45 µM was 43%.
`Nc1cncc(-c2nc(-c3ccc(Oc4ccc(C(F)(F)F)cc4)cc3)no2)c1` was tested, and the inhibition at 45 µM was less than 10%.
`c1cc2cc(-c3nc(-c4ccc(OC5CCCC5)cc4)no3)ccc2[nH]1` was tested, and the inhibition at 45 µM was less than 10%.
In the case of `O=C1C[C@H](c2nc(-c3ccc(Oc4ccc(C(F)(F)F)cc4)cc3)no2)CN1`, the inhibition at 45 µM is reported as less than 10%.
Work on `O=Cc1ccc(-c2noc(-c3ccc(O)cc3)n2)cc1` yielded an inhibition at 45 µM of less than 10%.
With `Clc1c[nH]nc1-c1nc(-c2ccc(OC3CCCC3)cc2)no1` the inhibition at 45 µM was less than 10%.
`CC(C)(C)OC(=O)NCc1ccc(-c2nc(-c3ccc(OC4CCCC4)cc3)no2)cc1` gave an inhibition at 45 µM of less than 10%.
With `NCc1ccc(-c2nc(-c3ccnc(-c4ccc(C(F)(F)F)cc4)c3)no2)cc1` the inhibition at 45 µM was 71%.
Work on `NCc1ccc(-c2nc(-c3ccnc(N4CCCC4)c3)no2)cc1` yielded an inhibition at 45 µM of 13%.
In the case of `O=[N+]([O-])c1c[nH]c(-c2nc(-c3ccc(Oc4ccc(C(F)(F)F)cc4)cc3)no2)c1`, the inhibition at 45 µM is reported as less than 10%.
In the case of `Oc1ccc(-c2noc(-c3ccc(O)cc3)n2)cc1`, the inhibition at 45 µM is reported as less than 10%.
`CCCCOc1ccc(-c2noc(-c3ccc(CN)cc3)n2)cc1` gave an inhibition at 45 µM of 32%.
`NCc1ccc(-c2nc(-c3ccc(CN4CCCC4)cc3)no2)cc1` was tested, and the inhibition at 45 µM was less than 10%.
`FC(F)(F)c1ccc(Oc2ccc(-c3noc(-c4cc5ccccc5[nH]4)n3)cc2)cc1` gave an inhibition at 45 µM of less than 10%.
In the case of `O=C(Nc1c[nH]nc1-c1nc(-c2ccc(Oc3ccc(C(F)(F)F)cc3)cc2)no1)c1ccccc1`, the inhibition at 45 µM is reported as less than 10%.
`Nc1ccc(-c2nc(-c3ccc(OC4CCCC4)cc3)no2)cc1` gave an inhibition at 45 µM of less than 10%.
Compound `Nc1cc(-c2nc(-c3ccc(Oc4ccc(C(F)(F)F)cc4)cc3)no2)cnc1O` has an inhibition at 45 µM of less than 10%.
With `NCCCOc1ccc(-c2noc(-c3ccc(O)cc3)n2)cc1` the inhibition at 45 µM was less than 10%.
With `CN1CCN(c2ccc(-c3noc(-c4ccc(O)cc4)n3)cc2)CC1` the inhibition at 45 µM was less than 10%.
Work on `FC(F)(F)c1ccc(Oc2ccc(-c3noc(-c4c[nH]c5ncccc45)n3)cc2)cc1` yielded an inhibition at 45 µM of less than 10%.
`O=[N+]([O-])c1cc(-c2nc(-c3ccc(Oc4ccc(C(F)(F)F)cc4)cc3)no2)cnc1O` was tested, and the inhibition at 45 µM was less than 10%.
`CS(=O)(=O)Nc1ccc(Cc2noc(-c3ccc4[nH]cc(CCN)c4c3)n2)cc1` [L-694247] gave an inhibition at 45 µM of less than 10%.
With `COc1ccc(-c2nc(-c3ccc(OC4CCCC4)cc3)no2)cc1` the inhibition at 45 µM was less than 10%.
`Oc1ccc(-c2nc(-c3ccc(Oc4ccc(C(F)(F)F)cc4)nc3)no2)cc1` gave an inhibition at 45 µM of less than 10%.
Compound `CC(C)(C)OC(=O)NCc1ccc(-c2nc(-c3ccc(Oc4ccc(C(F)(F)F)cc4)cc3)no2)cc1` has an inhibition at 45 µM of less than 10%.
